# The source made the active and inactive calls.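 The calls were made as follows: active = compounds with IC50 below 20 µM; inactive = the rest.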
# Target: Type-1 angiotensin II receptor (Homo sapiens) (UniProt P30556)
# Assay: antagonism of AGTR1 beta-arrestin recruitment – cell-based, CHO-K1 AGTR1, luminescence, set 5, selectivity assay for APJ receptor antagonist project, SAR follow-up (AID 504457)
# Details: CHO-K1 AGTR1 PathHunter beta-arrestin
# Sequence of Type-1 angiotensin II receptor (Homo sapiens) (P30556 whole entry, looked up): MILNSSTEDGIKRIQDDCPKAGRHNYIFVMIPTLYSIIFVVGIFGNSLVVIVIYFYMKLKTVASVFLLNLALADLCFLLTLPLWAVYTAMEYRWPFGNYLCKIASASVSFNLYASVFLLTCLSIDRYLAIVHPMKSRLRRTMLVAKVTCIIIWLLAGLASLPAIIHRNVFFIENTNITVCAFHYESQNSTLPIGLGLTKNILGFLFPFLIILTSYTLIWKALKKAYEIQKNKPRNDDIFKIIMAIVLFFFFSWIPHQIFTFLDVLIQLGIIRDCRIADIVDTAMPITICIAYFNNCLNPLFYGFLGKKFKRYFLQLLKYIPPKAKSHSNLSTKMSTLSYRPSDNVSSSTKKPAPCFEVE
row,Structure (SMILES),IC50
1,O=c1cc(CSc2ncccn2)occ1O,> 79 µM (inactive)
2,C=CCOc1ccc(CSc2nccc(C)n2)cc1,> 79 µM (inactive)
3,O=C(Oc1coc(CSc2ncccn2)cc1=O)c1ccc(Br)cc1,> 79 µM (inactive)
4,CC(=O)Oc1cc2c(cc1Cl)C(c1ccccc1Cl)CC1(CC(C)(C)NC(=S)N1)O2 (centres undefined),> 79 µM (inactive)
5,COc1ccc(C2CC3(CC(C)(C)NC(=S)N3)Oc3cc(OC(C)=O)cc(C)c32)cc1 (centres undefined),> 79 µM (inactive)
6,C=CCOc1ccc(CSc2nc(C)cc(C)n2)cc1OC,> 79 µM (inactive)
7,COc1cc(CSc2nc(C)cc(C)n2)ccc1O,> 79 µM (inactive)
8,Cc1ccnc(SCc2cc(=O)c(OC(=O)c3ccc(C#N)cc3)co2)n1,> 79 µM (inactive)
9,N#Cc1ccc(C(=O)Oc2coc(CSc3ncccn3)cc2=O)cc1,> 79 µM (inactive)
10,C=CCOc1ccc(COc2ccccc2)cc1,> 79 µM (inactive)
11,Cc1ccnc(SCc2cc(=O)c(OC(=O)c3ccccc3)co2)n1,> 79 µM (inactive)
12,Cc1ccccc1C1CC2(CC(C)(C)NC(=S)N2)Oc2cc(O)c(Cl)cc21 (centres undefined),inactive

# Now from value to compound:
row,IC50,Structure (SMILES)
1,inactive,CC1(C)CC2(CC(c3ccc(F)cc3)c3ccc(O)cc3O2)NC(=S)N1 (centres undefined)
2,> 79 µM (inactive),COc1ccccc1NC(=O)CN1C(=O)C(=O)c2ccccc21
3,inactive,Cc1cc(C)nc(SCc2cc(=O)c(OC(=O)c3cc([N+](=O)[O-])ccc3Cl)co2)n1
4,> 79 µM (inactive),Cc1cc(C)nc(SCc2cc(=O)c(O)co2)n1
5,> 79 µM (inactive),Cc1ccc(C(=O)Oc2coc(CSc3ncccn3)cc2=O)cc1[N+](=O)[O-]
6,> 79 µM (inactive),COc1ccc(C2CC3(CC(C)(C)NC(=S)N3)Oc3cc(O)cc(C)c32)cc1 (centres undefined)
7,> 79 µM (inactive),Cc1ccnc(SCc2cc(=O)c(OC(=O)c3ccc([N+](=O)[O-])cc3)co2)n1
